From patent US11541152B2, “Medical device with drug-eluting coating on modified device surface” (Lutonix, Inc., priority 2018, dated 2023)
Blank lines part the entries; values can stand above or below the compound they belong to.

Legend:
[1] = stability under ethylene oxide sterilization, heating and aging; reaction with paclitaxel; conditions: for reaction with paclitaxel: ethylene oxide sterilization, heating, aging
[2] = BSA added; cited from earlier work
[3] = cited from earlier work
protein (albumin) = conditions: cited from earlier work
[4] = octanol/water; cited from earlier work

reaction with paclitaxel [1]: reacted with paclitaxel
Compound: OCCNCCO [diethanolamine]

Compound: CC(=O)O[C@H]1C(=O)[C@@]2(C)[C@H]([C@H](OC(=O)c3ccccc3)[C@]3(O)C[C@H](OC(=O)[C@H](O)[C@@H](NC(=O)c4ccccc4)c4ccccc4)C(C)=C1C3(C)C)[C@]1(OC(C)=O)CO[C@@H]1C[C@@H]2O [paclitaxel]
increase of solubility in PBS with the addition of BSA [2]: over 20 fold

Compound: O=C(O)c1ccccc1 [benzoic acid]
reaction with paclitaxel [1]: reacted with paclitaxel
stability under ethylene oxide sterilization, heating, and aging process ([1]; formulated with paclitaxel): not stable

Compound: Sudan Red
solubility in aqueous solvent [3]: insoluble in aqueous solvent

Compound: CO[C@H]1C[C@@H]2CC[C@@H](C)[C@@](O)(O2)C(=O)C(=O)N2CCCC[C@H]2C(=O)O[C@H]([C@H](C)C[C@@H]2CC[C@@H](O)[C@H](OC)C2)CC(=O)[C@H](C)/C=C(\C)[C@@H](O)[C@@H](OC)C(=O)[C@H](C)C[C@H](C)/C=C/C=C/C=C/1C [rapamycin]
protein bound (protein (albumin)): 92%
share of protein binding that is to albumin (protein (albumin); primarily to albumin): 97%

Compound: COc1ccc(O)c(C(C)(C)C)c1 [Butylated hydroxyanisole]
log P [4]: 1.31

reaction with paclitaxel [1]: reacted with paclitaxel
Compound: O=C1O[C@H]([C@@H](O)CO)C(O)=C1O [ascorbic acid]

Compound: PEG-20 sorbitan monolaurate [Tween 20]
log P [4]: about 3.0
